# Data from patent publication US12544372B2, “Methods of treating rheumatoid arthritis, chronic spontaneous urticaria, and systemic lupus erythematosis using an inhibitor of Bruton's tyrosine kinase” (Genentech, Inc., priority 2019, dated 2026).
# Key:
# Type in all cases: in vivo, human
# [1] = tested on: patients with moderate to severe active rheumatoid arthritis; assay: Phase II RA study, Cohort 2 (inadequate response or intolerance to TNF therapy): clinical efficacy; settings: Cohort 2, 200 mg BID
# Excerpt: A Two-Cohort Randomized Phase II, Double-Blind, Parallel Group Study in Patients with Active Rheumatoid Arthritis Evaluating the Efficacy and Safety of Fenebrutinib Compared with Placebo and Adalimumab in Patients with an Inadequate Response to Previous Methotrexate Therapy (Cohort 1) and Compared with Placebo in Patients with an Inadequate Response or Intolerance to Previous TNF Therapy (Cohort 2)
# The study was a multicenter, Phase II, randomized, double-blind, placebo-controlled, active comparator (Cohort 1 only), parallel-group, dose-ranging study to evaluate the efficacy and safety of fenebrutinib in patients with moderate to severe active RA and an inadequate response to previous MTX therapy (Cohort 1) or MTX and TNF therapy who may have also had exposure to no more than one non-TNF inhibitor biologic (Cohort 2). Moderate to severe active RA was defined by ≥6 tender/painful joints on motion (68 joint count) and ≥6 swollen joints (66 joint count) at both screening and Day 1 (randomization), as well as a high sensitivity C-reactive protein (hsCRP)≥0. 400 mg/dL for Cohort 1 a hsCRP≥0.650 mg/dL for Cohort 2 at screening.
# The study enrolled 578 patients. In Cohort 1, 480 MTX-IR patients were randomized to placebo (110 patients), ADA (111 patients), or one of three doses of fenebrutinib: 50 mg QD (40 patients), 150 mg QD (109 patients), or 200 mg BID (110 patients). In Cohort 2, 98 TNF-IR patients were randomized to placebo or 200 mg BID fenebrutinib. […]
# ACR Assessments. The ACR's definition for calculating improvement in RA (ACR20) is calculated as a 20% improvement in tender and swollen joint counts and a 20% improvement in 3 of the 5 remaining ACR-core set measures: patient and physician global assessments, pain, disability, and an acute-phase reactant. Similarly, ACR50 and ACR70 are calculated with the respective percent improvements. […]
# [2] = tested on: IL-6; assay: RA study biomarker: IL-6 (immunoassay)
# Method: Biomarkers were evaluated in serum or plasma samples at baseline and weeks 1, 4, and 12 in patients with available samples (cohort 1: n=438; cohort 2: n=86). The biomarkers evaluated in this assessment were chemokine [C-C motif] ligand 4 (CCL4), IL-6, and TNF-like cytokine 1A (TL1A). Total IgM, IgG, rheumatoid factor IgM autoantibody (RF), CCL4, TL1A, IL-6, and anti-CCP autoantibody (ACPA IgG) levels were analyzed with immunoassays. CD19^+ B cells and CD3^+ T cells were measured by flow cytometry. The proportion of patients achieving an ACR50 response at week 12 and the change in DAS28 score by week 12 were assessed relative to seropositivity (RF and/or ACPA positive at baseline) or baseline levels of RF in both cohorts. To select which biomarkers to evaluate in this trial, BTK-dependent myeloid biomarkers were identified using peripheral blood CD14^+ monocytes stimulated with immune-complexes in the presence or absence of a BTK inhibitor. In brief, the expression levels of genes in human monocytes were assayed under conditions of no stimulation; with human serum albumin immune complex stimulation; with stimulation and a low concentration of a BTK inhibitor with similar characteristics to fenebrutinib; or with stimulation and a high concentration of the BTK inhibitor. […] Genes annotated with cytokine activity were selected. The color bar represents normalized gene expression.
# [3] = tested on: IgG anti-FcERI autoantibodies; assay: CSU study: serum IgG anti-FcERI autoantibodies (immunoassay); settings: Cohorts 1 and 2, serum, week 0 to 8
# Method: Some patient samples were also evaluated specifically for IgG anti-FcERI autoantibodies, and the level of those autoantibodies over time in fenebrutinib-administered patients compared to placebo-administered patients is shown in FIG. 37. Serum samples were collected at 0 and 8 weeks from patients receiving fenebrutinib (left) versus placebo (right), with samples sizes for each group shown. Prior to direct FcERI immunoassay, samples were split and pre-incubated with equimolar concentrations of rhFcERI or an unrelated control protein. Reactivity levels were determined relative to a mouse monoclonal antibody standard. IgG anti-FcERI was defined as the difference in reactivity between the split samples, and is shown in relative units (RU). The bold lines without markers represent the average of patients who were anti-FcERI positive at baseline. The dotted line represents the mean+3 standard deviations of healthy volunteer samples. Some sample lines for IgG anti-FcERI negative patients overlap at the lower end of the assay range. […] Without wishing to be bound by any theory, it is thought that anti-FcERI may be a driver of positive CU index test results, and are associated with refractory CSU.
# [4] = tested on: C3; assay: SLE study biomarker: C3
# Method: The following biomarkers were explored according to the biomarker objectives provided above in the Study Objectives. In Table 13, biomarkers are measured at baseline and subsequent timepoints during and after treatment. One set of biomarkers evaluated is the plasmablast signature. Plasmablasts are rapidly dividing, short-lived antibody secreting cells. While they represent a small proportion of B cells in the blood, they are responsible for a majority of antibody transcripts found in whole blood mRNA. The plasmablast signature comprises the biomarkers IgJ, Mzbl, and Txndc5. The gene expression of IgJ, Mzbl, and Txndc5 may be measured, for example, a polypeptide expression by evaluating the level of mRNA for said gene in a patient's blood relative to a reference level.
compound,measurement,setting,value
"C[C@H]1CN(C2COC2)CCN1c1ccc(Nc2cc(-c3ccnc(N4CCn5c(cc6c5CC(C)(C)C6)C4=O)c3CO)cn(C)c2=O)nc1 [fenebrutinib, (S)-2-(3′-(hydroxymethyl)-1-methyl-5-((5-(2-methyl-4-(oxetan-3-yl)piperazin-1-yl)pyridin-2-yl)amino)-6-oxo-1,6-dihydro-[3,4′-bipyridin]-2′-yl)-7,7-dimethyl-2,3,4,6,7,8-hexahydro-1H-cyclopenta[4,5]pyrrolo[1,2-a]pyrazin-1-one]",DAS 28-3 (CRP) Adjusted Mean,[1]; Week 12,−1.96
same,ACR50 Weighted Difference vs Placebo,[1]; Week 12 Day 84,13.85
same,DAS 28-3 (CRP) Difference (d),"[1]; versus placebo, Week 12",−0.76
same,IL-6 reduction relative to placebo,"[2]; Cohort 1, by week 12",not observed
same,IL-6 levels relative to placebo,"[2]; cohort 2, 200 mg twice daily, by week 12",−50%
same,IgG anti-FcERI autoantibodies,[3],significant reduction
same,"C3, Median Change from Baseline at Week 48",[4]; 150 mg QD,+0.01 g/L
same,"C3, Median Change from Baseline at Week 48",[4]; 200 mg BID,-0.01 g/L
